Mutagenic call and call data for 28 compounds are collected here from PubChem BioAssay AID1259408 (Genetic Toxicology Data Bank (GENE-TOX), 2018).

Active and inactive are the calls of the source. The rule behind the calls is not given here.

This series concerns GENE-TOX genotoxicity assays, various organisms and cells. Kind of series: GENE-TOX mutagenicity studies. To be noted: for call: Assay Type: In vivo carcinogenicity studies.
Where [1] appears, read: Species/Cell Type: Bacillus subtilis (H17 vs M45T), Assay Type: Rec-assay, spot test, DNA effects (bacterial DNA repair), Assay Code: REXT, Evaluation Type: Evaluation A (Pre-1980).
The mark [2] stands for this setting: Species/Cell Type: Mammalian polychromatic erythrocytes, Assay Type: Micronucleus test, chromosome aberrations, Assay Code: MNTT, Evaluation Type: Evaluation B (Post-1980).
The mark [3] stands for this setting: Species/Cell Type: Salmonella typhimurium (one or more of the five standard strains: TA98, TA100, TA1535, TA1537, and TA1538), Assay Type: Histidine reverse gene mutation, Ames assay, Assay Code: SAL+, Evaluation Type: Evaluation A (Pre-1980).
Where [4] appears, read: Species/Cell Type: Salmonella typhimurium (one or more of the five standard strains: TA98, TA100, TA1535, TA1537, and TA1538), Assay Type: Histidine reverse gene mutation, Ames assay, Assay Code: SAL-, Evaluation Type: Evaluation A (Pre-1980).
The mark [5] stands for this setting: Species/Cell Type: Human, Assay Type: Sister-chromatid exchange (SCE) in vitro, Assay Code: SC1T, Evaluation Type: Evaluation B (Post-1980).
[6] abbreviates: Species/Cell Type: Human diploid fibroblasts, Assay Type: Unscheduled DNA synthesis (UDS) in vitro, DNA effects, Assay Code: UDH+, Evaluation Type: Evaluation A (Pre-1980).
Setting [7] is: Species/Cell Type: Salmonella typhimurium (one or more of the five standard strains: TA98, TA100, TA1535, TA1537, and TA1538), Assay Type: Histidine reverse gene mutation, Ames assay, Assay Code: SALT, Evaluation Type: Evaluation A (Pre-1980).
Setting [8] is: Species/Cell Type: Nonhuman, Assay Type: Sister-chromatid exchange (SCE) in vitro, Assay Code: SC2+, Evaluation Type: Evaluation B (Post-1980).
[9] abbreviates: Species/Cell Type: Escherichia coli polA (W3119 vs P3478), Assay Type: Rec-assay, DNA effects (bacterial DNA repair), Assay Code: RE1+, Evaluation Type: Evaluation A (Pre-1980).
Setting [10] is: Species/Cell Type: Syrian hamster embryo (SHE) cells, Assay Type: Cell transformation, clonal assay, Assay Code: CTC+, Evaluation Type: Evaluation A (Pre-1980).
The mark [11] stands for this setting: Species/Cell Type: Salmonella typhimurium (one or more of the five standard strains: TA98, TA100, TA1535, TA1537, and TA1538), Assay Type: Histidine reverse gene mutation, Ames assay, Assay Code: SAL+*, Activation: With metabolic activation, Evaluation Type: Evaluation A (Pre-1980).
[12] abbreviates: Species/Cell Type: Syrian hamster embryo (SHE) cells, Assay Type: Cell transformation, clonal assay, Assay Code: CTC-, Evaluation Type: Evaluation A (Pre-1980).

As to `CC1=C(/C=C/C(C)=C/C=C/C(C)=C/C=C/C=C(C)/C=C/C=C(C)/C=C/C2=C(C)CCCC2(C)C)C(C)(C)CCC1`, the mutagenic call is “no conclusion” under setting [1] and “no conclusion” under setting [2].
Turning to `CC1CN(/N=C/c2ccc([N+](=O)[O-])o2)C(=O)N1` (configuration not stated), the mutagenic call under setting [3] was “active; positive”.
As to `Cc1ccc(Nc2ccc3c4c(cccc24)C(=O)c2ccccc2-3)cc1`, the mutagenic call under setting [3] was “active; positive”.
With `CCCCNCC`, under “Species/Cell Type: Fischer rat embryo (RLV/1706) cells, Assay Type: Cell transformation, viral enhanced, Assay Code: CTR-, Evaluation Type: Evaluation A (Pre-1980)”, the mutagenic call was “inactive; negative”.
Consider `Oc1cc2c3ccccc3cc3ccc4cccc1c4c32`, for which the mutagenic call is “inactive; negative” (Species/Cell Type: Chinese hamster lung (V79) cells, Assay Type: Forward gene mutation at the HPRT or ouabain locus, Assay Code: V79-, Evaluation Type: Evaluation A (Pre-1980)) and “active; positive” under setting [3]. In addition, where the note is “Species/Cell Type: Nonhuman, Assay Code: CCGT, Evaluation Type: Evaluation A (Pre-1980)”, the call is recorded as “no conclusion”.
On to `[N-]=[N+]=CC(=O)CCCCC(=O)C=[N+]=[N-]`, for which the mutagenic call runs as follows: (Species/Cell Type: Allium cepa, Assay Type: Chromosome aberrations, Assay Code: ALC-, Evaluation Type: Evaluation A (Pre-1980)) “inactive; negative”; (Species/Cell Type: Aspergillus nidulans, Assay Type: Reverse gene mutation, Assay Code: ASRT, Evaluation Type: Evaluation A (Pre-1980)) “no conclusion”; (Species/Cell Type: Hordeum vulgare (barley), Assay Type: Gene mutation, Assay Code: HOM+, Evaluation Type: Evaluation A (Pre-1980)) “active; positive”.
`CCC(=O)C(CC(C)N(C)C)(c1ccccc1)c1ccccc1` (configuration not stated): the mutagenic call by setting is: (Species/Cell Type: Drosophila melanogaster, Assay Type: Sex-linked recessive lethal gene mutation, Assay Code: SRL-, Evaluation Type: Evaluation A (Pre-1980)) “inactive; negative”; (Species/Cell Type: Drosophila melanogaster, Sex: Male, Assay Type: Heritable translocation test, chromosome aberrations, Assay Code: DHT-, Evaluation Type: Evaluation A (Pre-1980)) “inactive; negative”; (Species/Cell Type: Human, Sex: Male, Assay Type: Sperm morphology, Assay Code: SPHT, Evaluation Type: Evaluation A (Pre-1980)) “no conclusion”.
Turning to `C1CCCCC1`, the mutagenic call under setting [4] was “inactive; negative” and the mutagenic call (Species/Cell Type: Syrian hamster embryo (SA7/SHE) cells, Assay Type: Cell transformation, viral enhanced, Assay Code: CT7-, Evaluation Type: Evaluation A (Pre-1980)) is “inactive; negative”.
`COc1ccc(CCN2CCC(Nc3nc4ccccc4n3Cc3ccc(F)cc3)CC2)cc1`: the mutagenic call (Species/Cell Type: Human lymphocytes, Assay Type: Sister-chromatid exchange (SCE) in vitro, Assay Code: SCLT, Evaluation Type: Evaluation B (Post-1980)) is reported as “no conclusion”; the mutagenic call under setting [5] was “no conclusion”; the mutagenic call (Species/Cell Type: Mammalian polychromatic erythrocytes, Assay Type: Micronucleus test, chromosome aberrations, Assay Code: MNT-, Evaluation Type: Evaluation B (Post-1980)) was “inactive; negative”.
Consider `Nc1nnc(/C(=C/c2ccc([N+](=O)[O-])o2)c2ccco2)o1`, for which the mutagenic call under setting [6] was “active; positive”.
Take `Nc1nc(-c2cc([N+](=O)[O-])c[nH]2)cs1`: under setting [7], the mutagenic call is listed as “no conclusion”.
`C/C(O)=C1/C(=O)[C@@H]2[C@H]3c4c[nH]c5cccc(c45)C[C@H]3C(C)(C)N2C1=O`: the mutagenic call under setting [7] is on record as “no conclusion”.
As to `O=C(O)c1ccccc1O`, the mutagenic call (Species/Cell Type: Saccharomyces cerevisiae, Assay Type: Reverse gene mutation, Assay Code: YER+, Evaluation Type: Evaluation A (Pre-1980)) was “active; positive” and the mutagenic call under setting [4] is “inactive; negative”.
Regarding `c1cncc([C@@H]2CCCN2)c1`, the mutagenic call under setting [8] is “active; positive”.
On to `CC[N+]([O-])(CC)CCNc1ccc(C)c2sc3ccccc3c(=O)c12`, for which the mutagenic call under setting [7] was “no conclusion”.
On to `CC(=O)Nc1ccc(-c2ccc(NO)cc2)cc1`, for which, for the setting “Species/Cell Type: Chinese hamster ovary (CHO) cells, Assay Type: Forward gene mutation at the HPRT locus, Assay Code: CHO+, Evaluation Type: Evaluation B (Post-1980)”, the mutagenic call is “active; positive”.
As for `Cc1ccc(N=Nc2ccc(N(C)C)cc2)cc1`, the mutagenic call (Species/Cell Type: Rat primary hepatocytes, Assay Type: Unscheduled DNA synthesis (UDS) in vitro, DNA effects, Assay Code: UDP-, Evaluation Type: Evaluation A (Pre-1980)) was “inactive; negative”.
Take `Cc1c(C2(c3cc(Br)c(O)c(Br)c3C)OS(=O)(=O)c3ccccc32)cc(Br)c(O)c1Br`: the mutagenic call reads like this: under setting [1], “no conclusion”; under setting [7], “no conclusion”.
`CCc1cc(C(N)=S)ccn1`: under setting [5], the mutagenic call is on record as “no conclusion”.
As to `CN1CCC=C(C(=O)O)C1`, the mutagenic call under setting [2] is listed as “no conclusion”.
For `Nc1ccc(Cl)cc1`, the mutagenic call under setting [9] is “active; positive”; the mutagenic call (Species/Cell Type: Saccharomyces cerevisiae, Assay Type: Mitotic recombination or gene conversion, Assay Code: YEH-, Evaluation Type: Evaluation A (Pre-1980)) was “inactive; negative”; the mutagenic call under setting [10] is “active; positive”.
`O=NN1CCCC(Cl)C1` (configuration not stated): the mutagenic call (Species/Cell Type: Drosophila melanogaster, Assay Type: Sex-linked recessive lethal gene mutation, Assay Code: SRL+, Evaluation Type: Evaluation A (Pre-1980)) was “active; positive” and the mutagenic call under setting [11] was “active; positive”.
With `O=CC1CO1` (configuration not stated), the mutagenic call runs as follows: under setting [9], “active; positive”; under setting [6], “active; positive”; (Species/Cell Type: Mouse (BALB/c-3T3) cells, Assay Type: Cell transformation, Assay Code: CTB+D, Dose Response: With dose response, Evaluation Type: Evaluation A (Pre-1980)) “active; positive”; (Species/Cell Type: Saccharomyces cerevisiae, Assay Type: Mitotic recombination or gene conversion, Assay Code: YEH+, Evaluation Type: Evaluation A (Pre-1980)) “active; positive”; under setting [3], “active; positive”; (Species/Cell Type: Salmonella typhimurium, Assay Type: Forward and reverse gene mutation, host-mediated assay, Assay Code: HMA+, Evaluation Type: Evaluation A (Pre-1980)) “active; positive”. Under setting [10], the mutagenic call is “active; positive”. Where the note is “Species/Cell Type: Nonhuman, Assay Code: CCG+, Evaluation Type: Evaluation A (Pre-1980)”, the call is “active; positive”.
On to `CC(O)CO` (configuration not stated), for which the mutagenic call (Species/Cell Type: Human, Assay Type: Sister-chromatid exchange (SCE) in vitro, Assay Code: SC1-, Evaluation Type: Evaluation B (Post-1980)) is “inactive; negative” and the mutagenic call under setting [12] is “inactive; negative”.
Turning to `O=[N+]([O-])c1cc(Cl)cc(Sc2cc(Cl)cc([N+](=O)[O-])c2O)c1O`, the mutagenic call under setting [2] was “no conclusion”.
Take `Cc1cccc2cc3c(ccc4ccccc43)cc12`: for the setting “Species/Cell Type: Nonhuman, Assay Code: CCG+L, Evaluation Type: Evaluation A (Pre-1980)”, the call is “active; positive”. Besides, the mutagenic call under setting [8] was “active; positive”, the mutagenic call under setting [11] was “active; positive” and the mutagenic call under setting [12] was “inactive; negative”.
As for `CC1=C(/C=C/C(C)=C/C=C/C(C)=C/CO)C(C)(C)CCC1`, the mutagenic call is “inactive; negative” (Species/Cell Type: Mouse, Sex: Male, Assay Type: Sperm morphology, Assay Code: SPI-, Evaluation Type: Evaluation A (Pre-1980)) and “no conclusion” (Species/Cell Type: Nonhuman, Assay Type: Sister-chromatid exchange (SCE) in vitro, Assay Code: SC2T, Evaluation Type: Evaluation B (Post-1980)).
For `CCCCCc1cc(O)c2c(c1)OC(C)(C)[C@@H]1CCC(C)=C[C@@H]21`, the mutagenic call is “active; positive” (Species/Cell Type: Fischer rat embryo (RLV/1706) cells, Assay Type: Cell transformation, viral enhanced, Assay Code: CTR+, Evaluation Type: Evaluation A (Pre-1980)); “inactive; negative” (Species/Cell Type: Human diploid fibroblasts, Assay Type: Unscheduled DNA synthesis (UDS) in vitro, DNA effects, Assay Code: UDH-, Evaluation Type: Evaluation A (Pre-1980)); “inactive; negative” (Species/Cell Type: Human lymphocytes or leukocytes, Assay Type: Chromosome aberrations in vivo, Assay Code: CY8-, Evaluation Type: Evaluation A (Pre-1980)); “active; positive” (Species/Cell Type: Human lymphocytes, Assay Type: Sister-chromatid exchange (SCE) in vivo, Assay Code: SCY+, Evaluation Type: Evaluation B (Post-1980)); “inactive; negative” (Species/Cell Type: Human, Assay Type: Sister-chromatid exchange (SCE) in vitro, Assay Code: SC1-, Evaluation Type: Evaluation A (Pre-1980)); “active; positive” (Species/Cell Type: Mammalian polychromatic erythrocytes, Assay Type: Micronucleus test, chromosome aberrations, Assay Code: MNT+, Evaluation Type: Evaluation B (Post-1980)). Also, the mutagenic call (Species/Cell Type: Mammalian polychromatic erythrocytes, Assay Type: Micronucleus test, chromosome aberrations, Assay Code: MNTT, Evaluation Type: Evaluation A (Pre-1980)) was “no conclusion” and the mutagenic call (Species/Cell Type: Mouse, Sex: Male, Assay Type: Sperm morphology, Assay Code: SPI+, Evaluation Type: Evaluation A (Pre-1980)) is “active; positive”.
